Values of other authors in patent US20240050950A1, “GRADIENT-BASED MICROFLUIDIC CIRCUIT, DEVICE, AND METHOD FOR PERFORMING AN ASSAY” (priority 2020, published 2024).
Counter-ions that a name gives are not always drawn. Like-named read-outs stand apart in the source and are kept apart here.

Details: cited from earlier work
[1] = Table 1, antimicrobial agents/drugs
[2] = Table 3, antifungal drugs and other molecules

Row | Compound | Molar volume [1] [cm^3] | Molar volume (Table 2, anticancer drugs) [cm^3] | other results
1 | COc1ccc2nc3cc(Cl)ccc3c(Nc3cc(CN4CCCC4)c(O)c(CN4CCCC4)c3)c2n1 [Pyronaridine] | 381.8 ± 3.0 | – | –
2 | COc1cccc2c1C(=O)c1c(O)c3c(c(O)c1C2=O)C[C@@](O)(C(C)=O)C[C@@H]3O[C@H]1C[C@H](N)[C@H](O)[C@H](C)O1 [Cerubidine (Daunorubicin Hydrochloride), Daunorubicin Hydrochloride] | – | 339.4 ± 5.0 | –
3 | NC(=O)NO [Hydrea (Hydroxyurea), Hydroxyurea] | – | 52.1 ± 3.0 | –
4 | CC(/C=C/[C@@]1(C)[C@H](C)CCC(=O)[C@@H]1C)=C\Cc1c(O)c(Cl)c(C)c(C=O)c1O [Ascochlorin (Ilicicolin D, NSC 287492), Ascochlorin] | 337.6 ± 3.0 | – | –
5 | CC(C)(C)c1nc(-c2cccc(NS(=O)(=O)c3c(F)cccc3F)c2F)c(-c2ccnc(N)n2)s1 [Dabrafenib (Tafinlar), Dabrafenib] | – | 359.8 ± 3.0 | –
6 | O=c1ccc2[n+]([O-])c3ccc(O)cc3oc-2c1 [resazurin] | – | – | Molar volume (fluorescent dyes): 145±7 cm^3/mole
7 | C=Cc1cc(OC)c2c(c1)c(=O)oc1c2cc(OC)c2c(O)ccc([C@H]3O[C@@H](C)[C@@H](O)[C@](C)(O)[C@@H]3O)c21 [Chrysomycin A (MFCD07370133), Chrysomycin A] | 361.7 ± 3.0 | – | –
8 | CC(=O)OCC1=C(C(=O)O)N2C(=O)[C@@H](N)[C@H]2SC1 [7-Aminocephalosporanic acid (7-ACA), 7-Aminocephalosporanic acid] | 170.0 ± 5.0 | – | –
9 | CS(=O)(=O)c1ccc([C@@H](O)[C@@H](CF)NC(=O)C(Cl)Cl)cc1 [Florfenicol (Aquafen, Nuflor), Florfenicol] | 246.7 ± 3.0 | – | –
10 | CO[C@@]1(NC(=O)CSCC#N)C(=O)N2C(C(=O)O)=C(CSc3nnnn3C)CS[C@@H]21 [Cefmetazole] | 268.3 ± 7.0 | – | –
11 | Cc1onc(-c2c(Cl)cccc2Cl)c1C(=O)N[C@@H]1C(=O)N2[C@@H]1SC(C)(C)[C@@H]2C(=O)O [Dicloxacillin] | 290.0 ± 5.0 | – | –
12 | CC[C@H]1OC(=O)[C@H](C)[C@@H](O[C@H]2C[C@@](C)(OC)[C@@H](O)[C@H](C)O2)[C@H](C)[C@@H](O[C@@H]2O[C@H](C)C[C@H](N(C)C)[C@H]2O)[C@@]2(C)C[C@@H](C)[C@@]3(O[C@@]1(C)[C@H](O)[C@H]3C)O2 [Anhydroerythromycin A] | 590.7 ± 5.0 | – | –
13 | O=C(CCCCCCC(=O)Nc1ccccc1)NO [Vorinostat (Zolinza), Vorinostat] | – | 224.9 ± 3.0 | –
14 | Mithramycin A [Mithramycin A (Plicamycin)] | 728.3 ± 5.0 | – | –
15 | CO[C@@]12[C@H](COC(N)=O)C3=C(C(=O)C(C)=C(N)C3=O)N1C[C@@H]1N[C@@H]12 [Mitomycin C (Mitomycin), Mitomycin C] | 213.6 ± 5.0 | 213.6 ± 5.0 | –
16 | CC(C)[C@@H]1NC(=O)[C@H](CCCCN)NC(=O)[C@@H](Cc2c[nH]c3ccccc23)NC(=O)[C@H](Cc2ccc(O)cc2)NC(=O)[C@@H](NC(=O)[C@H](N)Cc2ccc3ccccc3c2)CSSC[C@@H](C(=O)N[C@H](C(N)=O)[C@@H](C)O)NC1=O [Lanreotide Acetate] | – | 781.0 ± 5.0 | –
17 | NC[C@H]1O[C@H](O[C@H]2[C@H](O[C@@H]3O[C@H](CO)[C@@H](O)[C@H]3O)[C@@H](O)[C@H](N)C[C@@H]2N)[C@H](N)[C@@H](O)[C@@H]1O [Ribostamycin] | 283.6 ± 5.0 | – | –
18 | C=C1C[C@@H]2[C@H](CC[C@]3(C)C(=O)CC[C@@H]23)[C@@]2(C)C=CC(=O)C=C12 [Aromasin (Exemestane), Exemestane] | – | 260.5 ± 5.0 | –
19 | CC[C@@H]1/C=C(\C)C[C@H](C)C[C@H](OC)[C@H]2O[C@@](O)(C(=O)C(=O)N3CCCC[C@H]3C(=O)O[C@H](/C(C)=C/[C@@H]3CC[C@@H](O)[C@H](OC)C3)[C@H](C)[C@@H](O)CC1=O)[C@H](C)C[C@@H]2OC [Ascomycin (KD4185000), Ascomycin] | 661.8 ± 5.0 | – | –

Row | Compound | Molar volume [1] [cm^3] | Molar volume (Table 2, anticancer drugs) [cm^3] | other results
20 | CC(C(=O)O)c1ccc(-c2ccccc2)c(F)c1 (stereo not drawn) [Flurbiprofen] | 203.6 ± 3.0 | – | –
21 | CO[C@H]1[C@H](OC(=O)c2ccc(C)[nH]2)[C@H](O)[C@@H](Oc2ccc3c(O)c(NC(=O)c4c[nH]c(C(=O)Nc5c(O)c6ccc(O[C@H]7OC(C)(C)[C@@H](OC)[C@H](OC(=O)c8ccc(C)[nH]8)[C@@H]7O)c(C)c6oc5=O)c4C)c(=O)oc3c2C)OC1(C)C [Coumermycin Al, Coumermycin A1] | 718.6 ± 5.0 | – | –
22 | CC(=O)[C@]1(O)Cc2c(O)c3c(c(O)c2[C@@H](O[C@H]2C[C@H](N)[C@H](O)[C@H](C)O2)C1)C(=O)c1ccccc1C3=O [Idarubicin Hydrochloride] | – | 317.8 ± 5.0 | –
23 | Phleomycin [Phleomycin (UNII:BN3E7WJN9X)] | 724.4 ± 7.0 | – | –
24 | C/C(=C\c1csc(C)n1)[C@@H]1C[C@@H]2O[C@]2(C)CCC[C@H](C)[C@H](O)[C@@H](C)C(=O)C(C)(C)[C@@H](O)CC(=O)N1 [Ixabepilone] | – | 451.5 ± 3.0 | –
25 | Gilteritinib Fumarate [Xospata (Gilteritinib Fumarate)] | – | 444.9 ± 3.0 | –
26 | N[C@@H](C(=O)N[C@@H]1C(=O)N2C(C(=O)O)=C(Cl)CS[C@H]12)c1ccccc1 [Cefaclor] | 226.4 ± 5.0 | – | –
27 | CC1(C)S[C@@H]2[C@H](NC(=O)C(C(=O)O)c3ccccc3)C(=O)N2[C@H]1C(=O)O (stereo partly drawn) [α-Carboxybenzylpenicillin] | 246.1 ± 5.0 | – | –
28 | C#Cc1cccc(Nc2ncnc3cc(OCCOC)c(OCCOC)cc23)c1 [Erlotinib Hydrochloride (Tarceva), Erlotinib Hydrochloride] | – | 315.4 ± 5.0 | –
29 | C[C@@H](OC[C@@]1(c2ccccc2)CC[C@]2(CCC(=O)N2)CN1)c1cc(C(F)(F)F)cc(C(F)(F)F)c1 [Rolapitant Hydrochloride] | – | 373.3 ± 5.0 | –
30 | CN(C/C=C/C#CC(C)(C)C)Cc1cccc2ccccc12 [Terbinafine] | – | – | Molar volume [2]: 289.1 cm^3
31 | CCNC(=O)[C@@H]1CCCN1C(=O)[C@H](CCCNC(=N)N)NC(=O)[C@H](CC(C)C)NC(=O)[C@@H](CC(C)C)NC(=O)[C@H](Cc1ccc(O)cc1)NC(=O)[C@H](CO)NC(=O)[C@H](Cc1c[nH]c2ccccc12)NC(=O)[C@H](Cc1c[nH]cn1)NC(=O)[C@@H]1CCC(=O)N1 [Leuprolide Acetate), Leuprolide Acetate] | – | 834.5 ± 7.0 | –
32 | O=C1CCC(N2C(=O)c3ccccc3C2=O)C(=O)N1 (stereo not drawn) [Thalidomide] | – | 171.7 ± 3.0 | –
33 | O=[N+]([O-])c1c(Cl)cccc1-c1c[nH]cc1Cl [Pyrrolnitrin] | 168.7 ± 3.0 | – | –
34 | C#CCC(Cc1cnc2nc(N)nc(N)c2n1)c1ccc(C(=O)N[C@@H](CCC(=O)O)C(=O)O)cc1 (stereo partly drawn) [Folotyn (Pralatrexate), Pralatrexate] | – | 324.5 ± 3.0 | –
35 | CN(C)C/C=C/C(=O)Nc1cc2c(Nc3ccc(F)c(Cl)c3)ncnc2cc1O[C@H]1CCOC1 [Gilotrif (Afatinib Dimaleate), Afatinib Dimaleate] | – | 351.9 ± 3.0 | –
36 | C[C@@H]1C[C@H]2O[C@@H]2/C=C\C=C\C(=O)Cc2c(Cl)c(O)cc(O)c2C(=O)O1 [Radicicol] | 267.3 ± 3.0 | – | –
37 | N=C(N)c1ccc(OCCCCCOc2ccc(C(=N)N)cc2)cc1 [Pentamidine] | 281.4 ± 7.0 | – | –
38 | CO/C(=C/C(N)=O)[C@H](C)[C@H](/C=C/c1csc(-c2csc([C@@H](C)/C=C/C=C/C(C)C)n2)n1)OC [Myxothiazol] | 421.0 ± 3.0 | – | –

Row | Compound | Molar volume [1] [cm^3] | Molar volume (Table 2, anticancer drugs) [cm^3] | other results
39 | CC[C@@]1([C@@H]2O[C@@H]([C@H]3O[C@@](O)(CO)[C@H](C)C[C@@H]3C)C[C@@H]2C)CC[C@H]([C@]2(C)CC[C@]3(C[C@H](O)[C@@H](C)[C@@H]([C@@H](C)[C@@H](OC)[C@H](C)C(=O)O)O3)O2)O1 [Monensin] | 552.7 ± 5.0 | – | –
40 | C=CCc1ccc(O)c(-c2ccc(O)c(CC=C)c2)c1 [Honokiol] | 240.4 ± 3.0 | – | –
41 | N=C1Sc2ccccc2C2=NCCCN12 [PD 404, 182, PD 404,182] | 150.9 ± 7.0 | – | –
42 | CC[C@@H](CO)NCCN[C@@H](CC)CO [Ethambutol ((+)-S,S-Ethambutol), Ethambutol] | 207.0 ± 3.0 | – | –
43 | CCCc1cc(C(N)=S)ccn1 [Prothionamide] | 158.5 ± 3.0 | – | –
44 | CCn1cc(C(=O)O)c(=O)c2cnc(N3CCNCC3)nc21 [Pipemidic acid] | 219.6 ± 3.0 | – | –
45 | Cc1cc(Nc2ncc(Cl)c(Nc3ccccc3S(=O)(=O)C(C)C)n2)c(OC(C)C)cc1C1CCNCC1 [Ceritinib (Zykadia), Ceritinib] | – | 445.9 ± 3.0 | –
46 | N[C@@H](Cc1ccc(N(CCCl)CCCl)cc1)C(=O)O [Melphalan] | – | 231.2 ± 3.0 | –
47 | C[C@@H]1CN(c2c(F)c(N)c3c(=O)c(C(=O)O)cn(C4CC4)c3c2F)C[C@H](C)N1 [Sparfloxacin] | 273.2 ± 3.0 | – | –
48 | Nc1ncnc2c1ccn2[C@@H]1O[C@H](CO)[C@@H](O)[C@H]1O [Tubercidin] | – | – | Molar volume [2]: 139.5 ± 7.0 cm^3
49 | C[C@@]1(CO)[C@H](O)CC[C@@]2(C)[C@H]1CC[C@H]1C[C@@H]3C[C@@]12CC[C@]3(O)CO [Aphidicolin] | 275.9 ± 5.0 | – | –
50 | COC(=O)C[C@](O)(CCCC(C)(C)O)C(=O)O[C@@H]1C(OC)=C[C@]23CCCN2CCc2cc4c(cc2[C@H]13)OCO4 [Omacetaxine Mepesuccinate] | – | 408.4 ± 5.0 | –
51 | c1ccc2nc3ccccc3nc2c1 [Phenazine] | 144.1 ± 3.0 | – | –
52 | CS(=O)(=O)OCCCCOS(C)(=O)=O [Busulfan] | – | 182.3 ± 3.0 | –
53 | Nc1ccn([C@@H]2O[C@H](CO)[C@@H](O)[C@@H]2O)c(=O)n1 [Cytarabine (Tarabine PFS), Cytarabine] | – | 128.4 ± 7.0 | –
54 | CN[C@@H]1[C@@H](O[C@H]2O[C@H](CO)[C@@H](N)[C@H](O)[C@H]2O)OC2C[C@@H](N)[C@@H](O[C@H]3[C@H](O)[C@@H](O)[C@H](N)C[C@@H]3N)OC2[C@@H]1O (stereo partly drawn) [Apramycin (Nebramycin II), Apramycin] | 344.4 ± 5.0 | – | –
55 | COc1cc2ncnc(Nc3ccc(F)c(Cl)c3)c2cc1OCCCN1CCOCC1 [Gefitinib] | – | 337.7 ± 3.0 | –
56 | O=P1(NCCCl)OCCCN1CCCl (stereo not drawn) [Ifex (Ifosfamide), Ifosfamide] | – | 195.6 ± 5.0 | –
